In ChEMBL document CHEMBL1129347, “Topographical amino acid substitution in position 10 of glucagon leads to antagonists/partial agonists with greater binding differences” (J Med Chem, 1996):

Each molecule was assayed against Glucagon receptor (Rattus norvegicus, UniProt P30082) (assay: Inhibition of [125I]glucagon binding towards Glucagon receptor).
Sequence of Glucagon receptor (P30082 whole entry): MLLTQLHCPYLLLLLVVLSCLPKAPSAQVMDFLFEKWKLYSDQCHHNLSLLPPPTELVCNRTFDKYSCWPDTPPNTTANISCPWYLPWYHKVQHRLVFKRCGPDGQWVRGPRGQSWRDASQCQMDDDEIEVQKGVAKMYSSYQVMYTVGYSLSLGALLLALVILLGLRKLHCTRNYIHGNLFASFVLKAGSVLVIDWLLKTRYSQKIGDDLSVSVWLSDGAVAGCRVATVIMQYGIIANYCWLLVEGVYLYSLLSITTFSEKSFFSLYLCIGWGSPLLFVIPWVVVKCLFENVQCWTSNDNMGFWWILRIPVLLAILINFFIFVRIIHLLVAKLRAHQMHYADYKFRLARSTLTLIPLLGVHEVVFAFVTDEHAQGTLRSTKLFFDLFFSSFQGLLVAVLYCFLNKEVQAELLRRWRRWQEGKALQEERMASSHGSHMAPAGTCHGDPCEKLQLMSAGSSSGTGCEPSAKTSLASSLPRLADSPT

IC50 | Compound
34.5 nM | CSCC[C@H](NC(=O)[C@H](CC(C)C)NC(=O)[C@H](Cc1c[nH]c2ccccc12)NC(=O)[C@H](CCC(N)=O)NC(=O)[C@@H](NC(=O)[C@H](Cc1ccccc1)NC(=O)[C@H](CC(=O)O)NC(=O)[C@H](CCC(N)=O)NC(=O)[C@H](C)NC(=O)[C@H](CCCNC(=N)N)NC(=O)[C@H](CCCNC(=N)N)NC(=O)[C@H](CO)NC(=O)[C@H](CC(=O)O)NC(=O)[C@H](CC(C)C)NC(=O)[C@H](Cc1ccc(O)cc1)NC(=O)[C@H](CCCCN)NC(=O)[C@H](CO)NC(=O)[C@@H](Cc1ccccc1)NC(=O)[C@H](CCC(=O)O)NC(=O)[C@H](CO)NC(=O)[C@@H](NC(=O)[C@H](Cc1ccccc1)NC(=O)[C@H](Cc1ccc(O)cc1)NC(=O)CNC(=O)[C@H](CCC(N)=O)NC(=O)[C@@H](N)CO)[C@@H](C)O)C(C)C)C(=O)N[C@@H](CC(N)=O)C(=O)N[C@H](C(N)=O)[C@@H](C)O
395 nM | CSCC[C@H](NC(=O)[C@H](CC(C)C)NC(=O)[C@H](Cc1c[nH]c2ccccc12)NC(=O)[C@H](CCC(N)=O)NC(=O)[C@@H](NC(=O)[C@H](Cc1ccccc1)NC(=O)[C@H](CC(=O)O)NC(=O)[C@H](CCC(N)=O)NC(=O)[C@H](C)NC(=O)[C@H](CCCNC(=N)N)NC(=O)[C@H](CCCNC(=N)N)NC(=O)[C@H](CO)NC(=O)[C@H](CC(=O)O)NC(=O)[C@H](CC(C)C)NC(=O)[C@H](Cc1ccc(O)cc1)NC(=O)[C@H](CCCCN)NC(=O)[C@H](CO)NC(=O)[C@H](C)NC(=O)[C@H](CCC(=O)O)NC(=O)[C@H](CO)NC(=O)[C@@H](NC(=O)[C@H](Cc1ccccc1)NC(=O)[C@H](Cc1ccc(O)cc1)NC(=O)CNC(=O)[C@H](CCC(N)=O)NC(=O)[C@@H](N)CO)[C@@H](C)O)C(C)C)C(=O)N[C@@H](CC(N)=O)C(=O)N[C@H](C(N)=O)[C@@H](C)O
4.1 nM | CSCC[C@H](NC(=O)[C@H](CC(C)C)NC(=O)[C@H](Cc1c[nH]c2ccccc12)NC(=O)[C@H](CCC(N)=O)NC(=O)[C@@H](NC(=O)[C@H](Cc1ccccc1)NC(=O)[C@H](CC(=O)O)NC(=O)[C@H](CCC(N)=O)NC(=O)[C@H](C)NC(=O)[C@H](CCCNC(=N)N)NC(=O)[C@H](CCCNC(=N)N)NC(=O)[C@H](CO)NC(=O)[C@H](CC(=O)O)NC(=O)[C@H](CC(C)C)NC(=O)[C@H](Cc1ccc(O)cc1)NC(=O)[C@H](CCCCN)NC(=O)[C@H](CO)NC(=O)[C@H](Cc1ccccc1)NC(=O)[C@H](CCC(=O)O)NC(=O)[C@H](CO)NC(=O)[C@@H](NC(=O)[C@H](Cc1ccccc1)NC(=O)[C@H](Cc1ccc(O)cc1)NC(=O)CNC(=O)[C@H](CCC(N)=O)NC(=O)[C@@H](N)CO)[C@@H](C)O)C(C)C)C(=O)N[C@@H](CC(N)=O)C(=O)N[C@H](C(N)=O)[C@@H](C)O
74 nM | CSCC[C@H](NC(=O)[C@H](CC(C)C)NC(=O)[C@H](Cc1c[nH]c2ccccc12)NC(=O)[C@H](CCC(N)=O)NC(=O)[C@@H](NC(=O)[C@H](Cc1ccccc1)NC(=O)[C@H](CC(=O)O)NC(=O)[C@H](CCC(N)=O)NC(=O)[C@H](C)NC(=O)[C@H](CCCN=C(N)N)NC(=O)[C@H](CCCN=C(N)N)NC(=O)[C@H](CO)NC(=O)[C@H](CC(=O)O)NC(=O)[C@H](CC(C)C)NC(=O)[C@H](Cc1ccc(O)cc1)NC(=O)[C@H](CCCCN)NC(=O)[C@H](CO)NC(=O)[C@@H](Cc1ccc(O)cc1)NC(=O)[C@H](CCC(=O)O)NC(=O)[C@H](CO)NC(=O)[C@@H](NC(=O)[C@H](Cc1ccccc1)NC(=O)[C@H](Cc1ccc(O)cc1)NC(=O)CNC(=O)[C@H](CCC(N)=O)NC(=O)[C@@H](N)CO)[C@@H](C)O)C(C)C)C(=O)N[C@@H](CC(N)=O)C(=O)N[C@H](C(N)=O)[C@@H](C)O
10 nM | CSCC[C@H](NC(=O)[C@H](CC(C)C)NC(=O)[C@H](Cc1c[nH]c2ccccc12)NC(=O)[C@H](CCC(N)=O)NC(=O)[C@@H](NC(=O)[C@H](Cc1ccccc1)NC(=O)[C@H](CC(=O)O)NC(=O)[C@H](CCC(N)=O)NC(=O)[C@H](C)NC(=O)[C@H](CCCN=C(N)N)NC(=O)[C@H](CCCN=C(N)N)NC(=O)[C@H](CO)NC(=O)[C@H](CC(=O)O)NC(=O)[C@H](CC(C)C)NC(=O)[C@H](Cc1ccc(O)cc1)NC(=O)[C@H](CCCCN)NC(=O)[C@H](CO)NC(=O)[C@@H](NC(=O)[C@H](CCC(=O)O)NC(=O)[C@H](CO)NC(=O)[C@@H](NC(=O)[C@H](Cc1ccccc1)NC(=O)[C@H](Cc1ccc(O)cc1)NC(=O)CNC(=O)[C@H](CCC(N)=O)NC(=O)[C@@H](N)CO)[C@@H](C)O)[C@H](C)c1ccccc1)C(C)C)C(=O)N[C@@H](CC(N)=O)C(=O)N[C@H](C(N)=O)[C@@H](C)O
2.3 nM | CSCC[C@H](NC(=O)[C@H](CC(C)C)NC(=O)[C@H](Cc1c[nH]c2ccccc12)NC(=O)[C@H](CCC(N)=O)NC(=O)[C@@H](NC(=O)[C@H](Cc1ccccc1)NC(=O)[C@H](CC(=O)O)NC(=O)[C@H](CCC(N)=O)NC(=O)[C@H](C)NC(=O)[C@H](CCCN=C(N)N)NC(=O)[C@H](CCCN=C(N)N)NC(=O)[C@H](CO)NC(=O)[C@H](CC(=O)O)NC(=O)[C@H](CC(C)C)NC(=O)[C@H](Cc1ccc(O)cc1)NC(=O)[C@H](CCCCN)NC(=O)[C@H](CO)NC(=O)[C@H](Cc1ccc(O)cc1)NC(=O)[C@H](CCC(=O)O)NC(=O)[C@H](CO)NC(=O)[C@@H](NC(=O)[C@H](Cc1ccccc1)NC(=O)[C@H](Cc1ccc(O)cc1)NC(=O)CNC(=O)[C@H](CCC(N)=O)NC(=O)[C@@H](N)CO)[C@@H](C)O)C(C)C)C(=O)N[C@@H](CC(N)=O)C(=O)N[C@H](C(N)=O)[C@@H](C)O
510 nM | CSCC[C@H](NC(=O)[C@H](CC(C)C)NC(=O)[C@H](Cc1c[nH]c2ccccc12)NC(=O)[C@H](CCC(N)=O)NC(=O)[C@@H](NC(=O)[C@H](Cc1ccccc1)NC(=O)[C@H](CC(=O)O)NC(=O)[C@H](CCC(N)=O)NC(=O)C(C)NC(=O)[C@H](CCCN=C(N)N)NC(=O)[C@H](CCCN=C(N)N)NC(=O)[C@H](CO)NC(=O)[C@H](CC(=O)O)NC(=O)[C@H](CC(C)C)NC(=O)[C@H](Cc1ccc(O)cc1)NC(=O)[C@H](CCCCN)NC(=O)[C@H](CO)NC(=O)C(C)NC(=O)[C@H](CCC(=O)O)NC(=O)[C@H](CO)NC(=O)[C@@H](NC(=O)[C@H](Cc1ccccc1)NC(=O)[C@H](Cc1ccc(O)cc1)NC(=O)CNC(=O)[C@H](CCC(N)=O)NC(=O)[C@@H](N)CO)[C@@H](C)O)C(C)C)C(=O)N[C@@H](CC(N)=O)C(=O)N[C@H](C(N)=O)[C@@H](C)O (stereo in doubt)
